Laboratory results: US5747447A, “Stable polypeptide composition” (COR Therapeutics, priority 1995, dated 1998)
pIC50: −log10 of the molar value. Read-outs that look alike come from different tables or passages of the source. Where a SMILES comes first, the peptide text is derived from it. Bridges are numbered along the chain shown (N, C = ends). [ ]: non-standard residue; d: D form. hArg = N=C(N)NCCCC[C@H](N)C(=O)O; Mpa = O=C(O)CCS

How the values were obtained:
M21 melanoma cells = assay: M21 melanoma cell adhesion to vitronectin-coated plates; format: cell-based
Description: M21 melanoma cells were labelled with ^35 S-methionine, and then added to vitronectin-coated plates in the presence of the indicated concentrations of purified snake venom peptides. Cell attachment was measured by solubilizing the cells remaining after an incubation and wash, as previously describe.

[1] = Stability of polypeptide I in citrate buffer, HPLC and visual (Example 1); format: physicochemical; conditions: citrate buffer pH 5.00 and 5.50 versus pH 6.0
Description: Citrate buffer solution is prepared by mixing citric acid in a volumetric flask to give a final citrate concentration of 25 mM with Nanopure water and adding NaOH to adjust the pH.
One ml aliquots of the above solution of polypeptide in citrate buffer were sealed in borosilicate glass ampules under sterile conditions and stored at a constant temperature. Test sample ampules from each pH and temperature condition 4° C., 50° C. and 70° C. were removed periodically, visually assessed and then analyzed separately by HPLC using a mobile phase comprising acetonitrile (MeCN) and 0.1% trifluoroacetic (TFA) in water. This stability was evaluated by conventional assay methods applicable to purity, weight or size of polypeptides. These included not only visual evaluations, such as discoloration, transparency and precipitation, and included assays normally applied to separate polypeptides from each other and from other materials by reversed phase high performance liquid chromatography (HPLC).
Results of these experiments are set forth in Table 1 in which the stability is expressed in terms of the percentage of main peak of original polypeptide found in the sample analyzed by HPLC. The composition was also found to be normal on visual evaluation.

[2] = Description: 20 ml aliquots of the above solution were placed into Type I glass vials and sealed with rubber stoppers and aluminum closures under sterile conditions and stored at a constant temperature. Test sample vials from each temperature condition, -15° C., 5° C., 30° C. and 45° C. were removed periodically and individually assessed and analyzed for stability by HPLC and visual evaluation as described in Example 1.
GP IIb-IIIa = target: T1, GP IIb-IIIa (Homo sapiens, UniProt P05106+P08514); format: binding; conditions: plate assays
T1 construct: GP IIb-IIIa, prepared in purified form; from tissue; own knowledge of the cited Fitzgerald et al. 1985 method
Description: In the assay, GP IIb-IIIa, prepared in purified form, for example as described by Fitzgerald, L. A., et al., Anal Biochem (1985) 151:169-177, incorporated herein by reference, is coated onto a solid support such as beads, test tubes, or microtiter plates. The coated support is then contacted with fibrinogen and with the test material and incubated for a sufficient time to permit maximal binding of fibrinogen to the immobilized GP IIb-IIIa. Fibrinogen is typically provided at a concentration of about 5-50 nM and the test material can, if desired, be added at a series of dilutions. Typical incubations are 2-4 hr at 35° C., the time and temperature being interdependent.
After incubation, the solution containing the fibrinogen and test material is removed and the level of binding of fibrinogen measured by quantitating bound fibrinogen to GP IIb-IIIa. Any suitable means of detection can be used, but it is convenient to employ labeled fibrinogen, for example using radioactive, fluorescent or biotinylated labels. Such methods are well known and need not be elaborated here.
Assessment of the results is aided by employing a control sample, usually identical to the test sample except that the test substance is absent. In this case, percent inhibition may be calculated using the basis, so that [formula] Other measures of inhibition effectiveness, such as IC50, can also be used.

[3] = target: ADP-induced human platelet aggregation (Homo sapiens, UniProt P05106+P08514); assay: standard aggregation inhibition assay (ADP-induced human platelet aggregation); format: cell-based; conditions: for pIC50: ADP-induced human platelet aggregation, read-out: Appr, IC50
Excerpt: 2. Standard assays directly applied to platelet aggregation, such as those described by Gann, Z.-R., et al., J Biol Chem (1988) 263:19827-19832; Huang, T. F., et al., J Biol Chem (1987) 262:16157-16163; Biochemistry (1989) 28:661-666, cited above and incorporated herein by reference;

vitronectin receptor = vitronectin receptor (Homo sapiens, UniProt P05106+P06756); assay: plate assay, inhibition of vitronectin binding to vitronectin receptor; conditions: at concentrations up to 1 uM
Excerpt: The PAI assay systems further include characterization of the PAI specificity by binding inhibition assays identical to that above but substituting other adhesive proteins for Fg and other receptors for GP IIb-IIIa. In particular, inhibition of the binding of vitronectin to the vitronectin receptor; fibronectin to the fibronectin receptor; fibronectin to GP IIb-IIIa and fibrinogen and/or vWF to GP IIb-IIIa can be assessed. The adhesive protein and receptors for these assays are available in the art.

Chain of ADP-induced human platelet aggregation (P08514 32-1039): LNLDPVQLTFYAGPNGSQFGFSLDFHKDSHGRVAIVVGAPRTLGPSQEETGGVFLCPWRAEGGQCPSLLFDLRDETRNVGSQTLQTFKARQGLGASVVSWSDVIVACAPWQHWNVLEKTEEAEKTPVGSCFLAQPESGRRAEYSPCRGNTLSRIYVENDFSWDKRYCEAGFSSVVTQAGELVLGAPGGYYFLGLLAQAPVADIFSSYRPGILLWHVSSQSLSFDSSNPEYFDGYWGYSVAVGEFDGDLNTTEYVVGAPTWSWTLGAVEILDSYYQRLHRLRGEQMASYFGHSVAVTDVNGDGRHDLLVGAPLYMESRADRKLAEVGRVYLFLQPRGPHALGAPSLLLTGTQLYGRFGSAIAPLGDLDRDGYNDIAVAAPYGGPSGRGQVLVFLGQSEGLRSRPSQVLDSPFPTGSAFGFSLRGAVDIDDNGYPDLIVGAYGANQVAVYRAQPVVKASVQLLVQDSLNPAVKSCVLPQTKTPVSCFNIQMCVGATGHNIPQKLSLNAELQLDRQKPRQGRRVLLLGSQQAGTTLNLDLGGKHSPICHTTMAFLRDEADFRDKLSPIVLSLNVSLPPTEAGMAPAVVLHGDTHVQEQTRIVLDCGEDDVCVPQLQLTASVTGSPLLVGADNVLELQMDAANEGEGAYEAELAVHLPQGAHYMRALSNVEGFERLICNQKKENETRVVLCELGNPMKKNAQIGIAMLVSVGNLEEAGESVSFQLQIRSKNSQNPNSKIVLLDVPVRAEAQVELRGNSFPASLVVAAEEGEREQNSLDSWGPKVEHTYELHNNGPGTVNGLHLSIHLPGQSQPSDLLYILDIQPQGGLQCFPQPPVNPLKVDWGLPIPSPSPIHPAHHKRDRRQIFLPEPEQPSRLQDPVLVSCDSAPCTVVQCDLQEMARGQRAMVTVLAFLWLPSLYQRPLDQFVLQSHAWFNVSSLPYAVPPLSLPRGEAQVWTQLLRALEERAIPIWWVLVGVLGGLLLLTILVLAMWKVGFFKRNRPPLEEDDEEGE
Chain of ADP-induced human platelet aggregation (P05106 27-788): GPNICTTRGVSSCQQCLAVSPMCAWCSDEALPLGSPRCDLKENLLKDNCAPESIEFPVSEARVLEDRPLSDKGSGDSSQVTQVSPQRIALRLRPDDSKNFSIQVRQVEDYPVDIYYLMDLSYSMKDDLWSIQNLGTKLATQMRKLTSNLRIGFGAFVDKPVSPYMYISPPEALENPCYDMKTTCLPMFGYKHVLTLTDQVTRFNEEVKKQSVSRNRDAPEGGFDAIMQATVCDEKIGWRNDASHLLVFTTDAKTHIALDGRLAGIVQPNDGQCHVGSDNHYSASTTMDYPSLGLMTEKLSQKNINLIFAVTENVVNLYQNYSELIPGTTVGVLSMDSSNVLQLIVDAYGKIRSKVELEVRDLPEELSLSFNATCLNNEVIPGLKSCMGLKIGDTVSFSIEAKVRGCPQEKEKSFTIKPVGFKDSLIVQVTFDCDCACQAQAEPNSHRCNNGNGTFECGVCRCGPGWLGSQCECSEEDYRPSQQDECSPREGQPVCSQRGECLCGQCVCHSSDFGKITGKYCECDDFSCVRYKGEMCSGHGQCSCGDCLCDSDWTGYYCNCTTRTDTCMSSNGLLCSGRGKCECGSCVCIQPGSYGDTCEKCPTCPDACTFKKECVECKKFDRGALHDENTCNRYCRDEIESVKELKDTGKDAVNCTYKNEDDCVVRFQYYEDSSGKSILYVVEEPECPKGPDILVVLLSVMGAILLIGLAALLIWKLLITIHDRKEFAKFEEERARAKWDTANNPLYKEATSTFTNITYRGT
T1 sequence (P08514 32-887 limits assumed): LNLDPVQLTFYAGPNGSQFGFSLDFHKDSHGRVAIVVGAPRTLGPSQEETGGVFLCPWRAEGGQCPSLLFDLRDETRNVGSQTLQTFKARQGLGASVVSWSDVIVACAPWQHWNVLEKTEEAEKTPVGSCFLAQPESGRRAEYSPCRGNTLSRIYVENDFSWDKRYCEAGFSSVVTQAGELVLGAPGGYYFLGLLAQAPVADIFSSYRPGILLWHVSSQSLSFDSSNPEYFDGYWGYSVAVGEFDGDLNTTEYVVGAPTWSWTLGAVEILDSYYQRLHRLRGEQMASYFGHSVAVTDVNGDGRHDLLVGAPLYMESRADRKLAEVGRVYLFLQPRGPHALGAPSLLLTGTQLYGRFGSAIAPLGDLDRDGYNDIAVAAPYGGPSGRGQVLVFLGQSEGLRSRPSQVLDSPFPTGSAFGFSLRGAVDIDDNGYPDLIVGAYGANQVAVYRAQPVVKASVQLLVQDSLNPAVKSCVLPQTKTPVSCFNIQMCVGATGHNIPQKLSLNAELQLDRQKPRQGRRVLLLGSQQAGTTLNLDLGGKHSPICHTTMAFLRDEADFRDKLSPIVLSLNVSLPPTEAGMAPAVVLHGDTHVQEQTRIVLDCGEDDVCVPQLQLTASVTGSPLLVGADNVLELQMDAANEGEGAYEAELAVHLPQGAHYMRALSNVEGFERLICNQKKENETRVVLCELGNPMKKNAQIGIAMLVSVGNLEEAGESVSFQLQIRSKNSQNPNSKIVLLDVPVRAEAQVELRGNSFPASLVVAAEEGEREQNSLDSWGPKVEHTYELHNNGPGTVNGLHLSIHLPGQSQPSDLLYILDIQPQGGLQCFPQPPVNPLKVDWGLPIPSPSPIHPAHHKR
T1 sequence (P08514 891-1039 limits assumed): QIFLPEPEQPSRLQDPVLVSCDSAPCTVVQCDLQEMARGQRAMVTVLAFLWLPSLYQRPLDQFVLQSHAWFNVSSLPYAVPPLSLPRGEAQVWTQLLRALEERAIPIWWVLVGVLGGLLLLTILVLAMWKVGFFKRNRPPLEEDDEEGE
T1 sequence (P05106 27-788): as the sequence (P05106 27-788) above
Chain of vitronectin receptor (P06756 31-889 limits assumed): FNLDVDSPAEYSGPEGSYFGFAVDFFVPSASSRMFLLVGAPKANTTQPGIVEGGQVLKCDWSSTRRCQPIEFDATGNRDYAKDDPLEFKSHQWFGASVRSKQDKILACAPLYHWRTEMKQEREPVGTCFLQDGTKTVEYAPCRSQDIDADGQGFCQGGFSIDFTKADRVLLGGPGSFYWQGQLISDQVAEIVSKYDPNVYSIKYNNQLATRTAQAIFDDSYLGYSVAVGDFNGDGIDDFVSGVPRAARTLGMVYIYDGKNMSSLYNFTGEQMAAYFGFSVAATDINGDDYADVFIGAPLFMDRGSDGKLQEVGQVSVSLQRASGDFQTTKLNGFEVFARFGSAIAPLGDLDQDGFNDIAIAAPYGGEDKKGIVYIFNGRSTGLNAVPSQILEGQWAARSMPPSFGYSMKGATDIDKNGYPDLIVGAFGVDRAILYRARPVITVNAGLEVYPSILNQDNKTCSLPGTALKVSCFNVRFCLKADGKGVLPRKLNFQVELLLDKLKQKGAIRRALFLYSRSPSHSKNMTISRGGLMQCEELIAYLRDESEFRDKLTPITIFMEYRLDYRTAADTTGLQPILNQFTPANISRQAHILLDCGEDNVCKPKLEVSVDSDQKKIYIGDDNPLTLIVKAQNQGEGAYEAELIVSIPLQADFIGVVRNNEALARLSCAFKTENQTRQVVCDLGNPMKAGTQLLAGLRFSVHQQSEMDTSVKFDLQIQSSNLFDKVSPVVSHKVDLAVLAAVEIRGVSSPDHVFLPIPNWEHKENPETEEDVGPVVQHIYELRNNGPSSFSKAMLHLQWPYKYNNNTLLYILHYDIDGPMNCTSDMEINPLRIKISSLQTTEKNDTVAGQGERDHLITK
Chain of vitronectin receptor (P06756 891-1048 limits assumed): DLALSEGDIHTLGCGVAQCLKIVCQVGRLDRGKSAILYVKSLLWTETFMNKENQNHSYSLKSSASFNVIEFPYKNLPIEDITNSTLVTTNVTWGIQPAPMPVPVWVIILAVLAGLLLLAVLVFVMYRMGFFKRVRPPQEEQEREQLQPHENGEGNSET
Chain of vitronectin receptor (P05106 27-788): as the sequence (P05106 27-788) above

Compound: C[C@H](NC(=O)[C@@H]1CSSC[C@H](NC(=O)CN)C(=O)NCC(=O)N[C@@H](CCCCN)C(=O)NCC(=O)N[C@@H](CC(=O)O)C(=O)N[C@@H](Cc2c[nH]c3ccccc23)C(=O)N2CCC[C@H]2C(=O)N1)C(N)=O [Analog #3, G-C-G-K-G-D-W-P-C-A-NH2]
- M21 cell attachment to vitronectin (in words) (M21 melanoma cells): ineffective up to 60 uM

Compound: N=C(N)NCCCC[C@@H]1NC(=O)CCSSC[C@@H](C(N)=O)NC(=O)[C@@H]2CCCN2C(=O)[C@H](Cc2c[nH]c3ccccc23)NC(=O)[C@H](CC(=O)O)NC(=O)CNC1=O [I, Mpr-L-homoarginine-Gly-Asp-Trp-Pro-Cys-NH2 .cndot.acetate] ([Mpa][hArg]GDWPC-NH2; disulfide 1-7)
- stability of liquid solution (in words) [1]: unexpectedly very stable at about 4° C., still stable at up to about 50 °C and much more stable at 70 °C in comparison to citrate buffer solutions at pH 6.0
- Peptide Stability in 5.5 pH Citrate Buffer Composition (HPLC as in Example 1) ([2]; 5° C., Time (days) 0): 98.8
- Peptide Stability in 5.5 pH Citrate Buffer Composition (HPLC as in Example 1) ([2]; 5° C., Time (days) 76): 98.6
- Peptide Stability in 5.5 pH Citrate Buffer Composition (HPLC as in Example 1) ([2]; 5° C., Time (days) 126): 98.5
- Peptide Stability in 5.5 pH Citrate Buffer Composition (HPLC as in Example 1) ([2]; 5° C., Time (days) 222): 98.5
- Peptide Stability in 5.5 pH Citrate Buffer Composition (HPLC as in Example 1) ([2]; 5° C., Time (days) 301): 98.2
- Peptide Stability in 5.5 pH Citrate Buffer Composition (HPLC as in Example 1) ([2]; 5° C., Time (days) 399): 98.2
- Peptide Stability in 5.5 pH Citrate Buffer Composition (HPLC as in Example 1) ([2]; 5° C., Time (days) 572): 98.2
- Peptide Stability in 5.5 pH Citrate Buffer Composition (HPLC as in Example 1) ([2]; 30° C. after one month at 5° C., Time (days) 45): 97.4
- Peptide Stability in 5.5 pH Citrate Buffer Composition (HPLC as in Example 1) ([2]; 30° C. after one month at 5° C., Time (days) 95): 96.4
- Peptide Stability in 5.5 pH Citrate Buffer Composition (HPLC as in Example 1) ([2]; 30° C. after one month at 5° C., Time (days) 191): 95.8
- Peptide Stability in 5.5 pH Citrate Buffer Composition (HPLC as in Example 1) ([2]; 30° C. after one month at 5° C., Time (days) 270): 95.1
- Peptide Stability in 5.5 pH Citrate Buffer Composition (HPLC as in Example 1) ([2]; 30° C. after one month at 5° C., Time (days) 368): 94.5
- Peptide Stability in 5.5 pH Citrate Buffer Composition (HPLC as in Example 1) ([2]; 30° C. after one month at 5° C., Time (days) 541): 93.6
- Peptide Stability in 5.5 pH Citrate Buffer Composition (HPLC as in Example 1) ([2]; 45° C. after one month at 5° C., Time (days) 45): 96.1
- Peptide Stability in 5.5 pH Citrate Buffer Composition (HPLC as in Example 1) ([2]; 45° C. after one month at 5° C., Time (days) 95): 94.1
- Peptide Stability in 5.5 pH Citrate Buffer Composition (HPLC as in Example 1) ([2]; 45° C. after one month at 5° C., Time (days) 191): 92.4
- Peptide Stability in 5.5 pH Citrate Buffer Composition (HPLC as in Example 1) ([2]; 45° C. after one month at 5° C., Time (days) 270): 89.8
- Peptide Stability in 5.5 pH Citrate Buffer Composition (HPLC as in Example 1) ([2]; 45° C. after one month at 5° C., Time (days) 368): 86.5
- Peptide Stability in 5.5 pH Citrate Buffer Composition (HPLC as in Example 1) ([2]; 45° C. after one month at 5° C., Time (days) 541): 76.1
- Peptide Stability in 5.5 pH Citrate Buffer Composition (HPLC as in Example 1) ([2]; -15° C. after one month at 5° C., Time (days) 45): 98.9
- Peptide Stability in 5.5 pH Citrate Buffer Composition (HPLC as in Example 1) ([2]; -15° C. after one month at 5° C., Time (days) 95): 99.0
- Peptide Stability in 5.5 pH Citrate Buffer Composition (HPLC as in Example 1) ([2]; -15° C. after one month at 5° C., Time (days) 191): 99.1
- Peptide Stability in 5.5 pH Citrate Buffer Composition (HPLC as in Example 1) ([2]; -15° C. after one month at 5° C., Time (days) 270): 98.7
- Peptide Stability in 5.5 pH Citrate Buffer Composition (HPLC as in Example 1) ([2]; -15° C. after one month at 5° C., Time (days) 368): 98.6
- Peptide Stability in 5.5 pH Citrate Buffer Composition (HPLC as in Example 1) ([2]; -15° C. after one month at 5° C., Time (days) 541): 98.9

Compound: C[C@H](NC(=O)[C@@H]1CSSC[C@H](NC(=O)CN)C(=O)N[C@@H](CCCCN)C(=O)NCC(=O)N[C@@H](CC(=O)O)C(=O)N[C@@H](Cc2c[nH]c3ccccc23)C(=O)N2CCC[C@H]2C(=O)N1)C(N)=O [Analog #4, G-C-K-G-D-W-P-C-A-NH2] (H-GCKGDWPCA-NH2; disulfide 2-8)
- differential fibrinogen/GP IIb-IIIa versus vitronectin/vitronectin receptor (in words) (GP IIb-IIIa): highest differential
- pIC50 [3]: 5.30

Compound: [E^28 L^41 C^64 ]barbourin (28-73) [Analog #1]
- affinity for VnR (in words) (vitronectin receptor): relative lack of affinity
- platelet aggregation inhibition activity (in words) [3]: potent inhibitors of platelet aggregation
- M21 cell attachment to vitronectin (in words) (M21 melanoma cells): Neither barbourin nor Peptide 1 (truncated barbourin) had a significant effect

Compound: NCCCC[C@@H]1NC(=O)CNC(=O)[C@@H](N)CSSC[C@@H](C(N)=O)NC(=O)[C@@H]2CCCN2C(=O)[C@H](Cc2c[nH]c3ccccc23)NC(=O)[C@H](CC(=O)O)NC(=O)CNC1=O [Analog #5, C-G-K-G-D-W-P-C-NH2] (H-CGKGDWPC-NH2; disulfide 1-8)
- differential fibrinogen/GP IIb-IIIa versus vitronectin/vitronectin receptor (in words) (GP IIb-IIIa): quite specific
- pIC50 [3]: 5.30

Compound: C[C@H](NC(=O)[C@@H]1CSSC[C@H](NC(=O)CN)C(=O)N[C@@H](CCCCN)C(=O)NCC(=O)N[C@@H](CC(=O)O)C(=O)N[C@@H](Cc2c[nH]c3ccccc23)C(=O)N1)C(N)=O [Analog #7, G-C-K-G-D-W-C-A-NH2] (H-GCKGDWCA-NH2; disulfide 2-7 (inferred); N-terminus assumed)
- differential fibrinogen/GP IIb-IIIa versus vitronectin/vitronectin receptor (in words) (GP IIb-IIIa): quite specific

Compound: C[C@H](NC(=O)[C@@H]1CSSC[C@H](NC(=O)CN)C(=O)NCC(=O)N[C@@H](CCCNC(=N)N)C(=O)NCC(=O)N[C@@H](CC(=O)O)C(=O)N[C@@H](Cc2c[nH]c3ccccc23)C(=O)N2CCC[C@H]2C(=O)N1)C(N)=O [reference compound] (H-GCGRGDWPCA-NH2; disulfide 2-9)
- M21 cell attachment to vitronectin (in words) (M21 melanoma cells): potent inhibitors of cell attachment
